The test system of this experiment is MV-4-11 cells. The experiment is described as follows: Gene expression microarray analysis (Affymetrix PrimeView) and GSEA. Also on record: RFU PODN (11730768_x_at) / Fold change /veh PODN (11730768_x_at) / RFU LINC00158 (11744669_a_at) / Fold change /veh LINC00158 (11744669_a_at) / RFU DUSP10 (11751237_a_at) / Fold change /veh DUSP10 (11751237_a_at) / RFU ID3 (11757404_x_at) / Fold change /veh ID3 (11757404_x_at) / RFU PLEKHG5 (11737974_s_at) / Fold change /veh PLEKHG5 (11737974_s_at) / RFU LRRC4B (11730491_at) / Fold change /veh LRRC4B (11730491_at) / RFU GIMAP4 (11747438_a_at) / Fold change /veh GIMAP4 (11747438_a_at) / RFU KRT8 (11758183_x_at) / Fold change /veh KRT8 (11758183_x_at) / RFU CNN1 (11734310_a_at) / Fold change /veh CNN1 (11734310_a_at) / RFU VPS37D (11726825_at) / Fold change /veh VPS37D (11726825_at) / RFU C10orf10 (11716522_x_at) / Fold change /veh C10orf10 (11716522_x_at) / RFU KIR2DL2 /// KIR2DL4 /// KIR2DL5A /// KIR2DL5B /// KIR2DS1 /// KIR2DS2 /// KIR2DS3 /// KIR2DS4 /// KIR3DL3 /// KIR3DL3 /// KIR3DS1 (11738374_at) / Fold change /veh KIR2DL2 /// KIR2DL4 /// KIR2DL5A /// KIR2DL5B /// KIR2DS1 /// KIR2DS2 /// KIR2DS3 /// KIR2DS4 /// KIR3DL3 /// KIR3DL3 /// KIR3DS1 (11738374_at) / RFU C1QL1 (11718748_at) / Fold change /veh C1QL1 (11718748_at) / RFU TMPRSS4 (11747572_a_at) / Fold change /veh TMPRSS4 (11747572_a_at) / RFU HAMP (11756126_x_at) / Fold change /veh HAMP (11756126_x_at) / RFU RNFT2 (11725882_a_at) / Fold change /veh RNFT2 (11725882_a_at) / RFU NR4A2 (11747474_a_at) / Fold change /veh NR4A2 (11747474_a_at) / RFU ABCC12 (11746883_a_at) / Fold change /veh ABCC12 (11746883_a_at) / RFU TMEM136 (11760407_x_at) / Fold change /veh TMEM136 (11760407_x_at) / RFU CLDN22 /// WWC2 (11732394_at) / Fold change /veh CLDN22 /// WWC2 (11732394_at) / RFU HLA-DPB1 (11760878_x_at) / Fold change /veh HLA-DPB1 (11760878_x_at) / RFU SPINT1 (11716480_a_at) / Fold change /veh SPINT1 (11716480_a_at) / RFU GAP43 (11754022_s_at) / Fold change /veh GAP43 (11754022_s_at) / RFU A4GNT (11735810_at) / Fold change /veh A4GNT (11735810_at) / RFU PRB3 (11715151_x_at) / Fold change /veh PRB3 (11715151_x_at) / RFU TUBB4B (11761932_at) / Fold change /veh TUBB4B (11761932_at) / RFU CAPN14 (11732068_a_at) / Fold change /veh CAPN14 (11732068_a_at) / RFU TMCC2 (11721928_a_at) / Fold change /veh TMCC2 (11721928_a_at) / RFU IRGQ (11745062_a_at) / Fold change /veh IRGQ (11745062_a_at) / RFU FAM174B (11720279_a_at) / Fold change /veh FAM174B (11720279_a_at) / RFU TMPRSS4 (11748680_a_at) / Fold change /veh TMPRSS4 (11748680_a_at) / RFU FAM212B (11763350_a_at) / Fold change /veh FAM212B (11763350_a_at) / RFU PLEKHG5 (11743358_a_at) / Fold change /veh PLEKHG5 (11743358_a_at) / RFU ZSCAN30 (11745921_a_at) / Fold change /veh ZSCAN30 (11745921_a_at) / RFU CMKLR1 (11741424_a_at) / Fold change /veh CMKLR1 (11741424_a_at) / RFU LOC101060620 /// MAPK8IP1 (11723275_at) / Fold change /veh LOC101060620 /// MAPK8IP1 (11723275_at) / RFU SPTSSB (11747773_x_at) / Fold change /veh SPTSSB (11747773_x_at) / RFU PRSS12 (11739890_at) / Fold change /veh PRSS12 (11739890_at) / RFU BIN1 (11741810_x_at) / Fold change /veh BIN1 (11741810_x_at) / RFU WNT11 (11732464_a_at) / Fold change /veh WNT11 (11732464_a_at) / RFU C10orf10 (11716521_a_at) / Fold change /veh C10orf10 (11716521_a_at) / RFU C5orf56 (11738089_at) / Fold change /veh C5orf56 (11738089_at) / RFU CYB561 (11721691_x_at) / Fold change /veh CYB561 (11721691_x_at) / RFU ANKRD19P (11752326_a_at) / Fold change /veh ANKRD19P (11752326_a_at) / RFU OR2T12 /// OR2T33 /// OR2T8 (11738714_s_at) / Fold change /veh OR2T12 /// OR2T33 /// OR2T8 (11738714_s_at) / RFU VCAN (11748164_a_at) / Fold change /veh VCAN (11748164_a_at) / RFU JSRP1 (11732532_at) / Fold change /veh JSRP1 (11732532_at) / RFU KRTAP10-11 (11738290_x_at) / Fold change /veh KRTAP10-11 (11738290_x_at) / RFU MYO3A (11730013_a_at) / Fold change /veh MYO3A (11730013_a_at) / RFU EBF3 (11725865_a_at) / Fold change /veh EBF3 (11725865_a_at) / RFU CAMK2N1 (11719241_x_at) / Fold change /veh CAMK2N1 (11719241_x_at) / RFU C5orf56 (11738088_a_at) / Fold change /veh C5orf56 (11738088_a_at) / RFU OLFML3 (11715873_a_at) / Fold change /veh OLFML3 (11715873_a_at) / RFU LOC100653217 /// NTM (11731650_a_at) / Fold change /veh LOC100653217 /// NTM (11731650_a_at) / RFU MAPK11 (11762145_a_at) / Fold change /veh MAPK11 (11762145_a_at) / RFU FIZ1 (11724087_x_at) / Fold change /veh FIZ1 (11724087_x_at) / RFU OASL (11726364_x_at) / Fold change /veh OASL (11726364_x_at) / RFU SOX15 (11748057_x_at) / Fold change /veh SOX15 (11748057_x_at) / RFU CD79A (11719716_a_at) / Fold change /veh CD79A (11719716_a_at) / RFU HIST1H1D (11736915_at) / Fold change /veh HIST1H1D (11736915_at) / RFU CASKIN2 (11723855_a_at) / Fold change /veh CASKIN2 (11723855_a_at) / RFU LOC730098 (11760151_x_at) / Fold change /veh LOC730098 (11760151_x_at) / RFU OR4N2 (11742367_at) / Fold change /veh OR4N2 (11742367_at) / RFU PRRT2 (11749266_a_at) / Fold change /veh PRRT2 (11749266_a_at) / RFU SNX32 (11753110_a_at) / Fold change /veh SNX32 (11753110_a_at) / RFU CDHR5 (11726645_a_at) / Fold change /veh CDHR5 (11726645_a_at) / RFU RCAN1 (11760418_a_at) / Fold change /veh RCAN1 (11760418_a_at) / RFU FAM167A (11723789_a_at) / Fold change /veh FAM167A (11723789_a_at) / RFU FAM26E (11764081_at) / Fold change /veh FAM26E (11764081_at) / RFU ISYNA1 (11749810_s_at) / Fold change /veh ISYNA1 (11749810_s_at) / RFU ACY1 (11761880_at) / Fold change /veh ACY1 (11761880_at) / RFU 11764098_at / Fold change /veh 11764098_at / RFU SAMD14 (11745864_x_at) / Fold change /veh SAMD14 (11745864_x_at) / RFU NPB (11741838_a_at) / Fold change /veh NPB (11741838_a_at) / RFU TMPRSS6 (11731388_a_at) / Fold change /veh TMPRSS6 (11731388_a_at) / RFU KRTAP10-2 (11738614_at) / Fold change /veh KRTAP10-2 (11738614_at) / RFU ARHGAP8 /// PRR5-ARHGAP8 (11727945_x_at) / Fold change /veh ARHGAP8 /// PRR5-ARHGAP8 (11727945_x_at) / RFU KRTAP5-7 /// NADSYN1 (11734609_at) / Fold change /veh KRTAP5-7 /// NADSYN1 (11734609_at) / RFU RASL12 (11751679_a_at) / Fold change /veh RASL12 (11751679_a_at) / RFU CDKN2B (11736163_a_at) / Fold change /veh CDKN2B (11736163_a_at) / RFU PRF1 (11729649_at) / Fold change /veh PRF1 (11729649_at) / RFU, ZNF638 /// ZNF638-IT1 / Fold change vs veh, ZNF638 /// ZNF638-IT1 / RFU, PANK3 / Fold change vs veh, PANK3 / RFU, SH3YL1 / Fold change vs veh, SH3YL1 / RFU, ZEB2 / Fold change vs veh, ZEB2 / RFU, NRIP1 / Fold change vs veh, NRIP1 / RFU, PTTG1IP / Fold change vs veh, PTTG1IP / RFU, CAPN2 / Fold change vs veh, CAPN2 / RFU, MED14 / Fold change vs veh, MED14 / RFU, SNORA58 / Fold change vs veh, SNORA58 / RFU, C1orf63 / Fold change vs veh, C1orf63 / RFU, LRRFIP1 / Fold change vs veh, LRRFIP1 / RFU, NDUFAF7 / Fold change vs veh, NDUFAF7 / RFU, SLC12A2 / Fold change vs veh, SLC12A2 / RFU, IBTK / Fold change vs veh, IBTK / RFU, ESF1 / Fold change vs veh, ESF1 / Fold change vs veh, TMEM50B / RFU, TAOK1 / Fold change vs veh, TAOK1 / RFU, ACBD3 / Fold change vs veh, ACBD3 / RFU, TMA16 / Fold change vs veh, TMA16 / RFU, RWDD3 / Fold change vs veh, RWDD3 / RFU, BCAT1 / Fold change vs veh, BCAT1 / RFU, EDEM3 / Fold change vs veh, EDEM3 / RFU, TMEM33 / Fold change vs veh, TMEM33 / RFU, WDR75 / Fold change vs veh, WDR75 / RFU, AHCTF1 / Fold change vs veh, AHCTF1 / RFU, TFRC / Fold change vs veh, TFRC / RFU, ZDHHC17 / Fold change vs veh, ZDHHC17 / RFU, NOM1 / Fold change vs veh, NOM1 / RFU, ARL8B / Fold change vs veh, ARL8B / RFU, ZBTB11 / Fold change vs veh, ZBTB11 / RFU, TAMM41 / Fold change vs veh, TAMM41 / RFU, KIAA1704 /// LOC100996395 / Fold change vs veh, KIAA1704 /// LOC100996395 / RFU, ING1 / Fold change vs veh, ING1 / RFU, TRMT61B / Fold change vs veh, TRMT61B / RFU, FUBP3 / Fold change vs veh, FUBP3 / RFU, TP53 / Fold change vs veh, TP53 / RFU, TNKS2 / Fold change vs veh, TNKS2 / RFU, ZFP14 / Fold change vs veh, ZFP14 / RFU, ACTR2 / Fold change vs veh, ACTR2 / RFU, PPP3R1 / Fold change vs veh, PPP3R1 / RFU, PIK3R1 / Fold change vs veh, PIK3R1 / RFU, HNRNPA1 / Fold change vs veh, HNRNPA1 / RFU, RNF170 / Fold change vs veh, RNF170 / RFU, ZNF28 / Fold change vs veh, ZNF28 / RFU, RNGTT / Fold change vs veh, RNGTT / RFU, OGT / Fold change vs veh, OGT / RFU, BRD1 / Fold change vs veh, BRD1 / RFU, MARS / Fold change vs veh, MARS / RFU, ZNF655 / Fold change vs veh, ZNF655 / RFU, FAHD1 / Fold change vs veh, FAHD1 / RFU, BDP1 / Fold change vs veh, BDP1 / RFU, LRRCC1 / Fold change vs veh, LRRCC1 / RFU, ARID1A / Fold change vs veh, ARID1A / RFU, ZNF146 / Fold change vs veh, ZNF146 / RFU, ZNF330 / Fold change vs veh, ZNF330 / RFU, GPN3 / Fold change vs veh, GPN3 / RFU, C9orf123 / Fold change vs veh, C9orf123 / RFU, N4BP2L2 / Fold change vs veh, N4BP2L2 / RFU, ARFIP1 / Fold change vs veh, ARFIP1 / RFU, FAM179B / Fold change vs veh, FAM179B / RFU, BCL10 / Fold change vs veh, BCL10 / RFU, UHRF1BP1L / Fold change vs veh, UHRF1BP1L / RFU, BET1 / Fold change vs veh, BET1 / RFU, CNOT2 / Fold change vs veh, CNOT2 / RFU, ZNF268 / Fold change vs veh, ZNF268 / Fold change vs veh, ZNF507 / RFU, DGCR2 / Fold change vs veh, DGCR2 / RFU, WDSUB1 / Fold change vs veh, WDSUB1 / Fold change vs veh, HSP90B1 /// MIR3652 / RFU, ADSS / Fold change vs veh, ADSS / RFU, GK / Fold change vs veh, GK / RFU, ZNF148 / Fold change vs veh, ZNF148 / RFU, TAF9 / Fold change vs veh, TAF9 / RFU, SLC1A5 / Fold change vs veh, SLC1A5 / RFU, SLMO2 / Fold change vs veh, SLMO2 / RFU, ABCC4 / Fold change vs veh, ABCC4 / RFU, LOC101060439 /// RAP1B / Fold change vs veh, LOC101060439 /// RAP1B / RFU, RFX7 / Fold change vs veh, RFX7 / RFU, GTPBP10 / Fold change vs veh, GTPBP10 / RFU, CNEP1R1 / Fold change vs veh, CNEP1R1 / RFU, BIVM-ERCC5 /// ERCC5 / Fold change vs veh, BIVM-ERCC5 /// ERCC5 / RFU, ILF3 / Fold change vs veh, ILF3 / RFU 11762660_at / Fold change /veh 11762660_at / RFU VCAN (11757783_s_at) / Fold change /veh VCAN (11757783_s_at) / RFU DDX43 (11728927_at) / Fold change /veh DDX43 (11728927_at) / RFU KRT8 (11758188_x_at) / Fold change /veh KRT8 (11758188_x_at) / RFU NKD1 (11759106_at) / Fold change /veh NKD1 (11759106_at) / RFU SRD5A1 (11742802_a_at) / Fold change /veh SRD5A1 (11742802_a_at) / RFU TPSAB1 /// TPSB2 (11721975_s_at) / Fold change /veh TPSAB1 /// TPSB2 (11721975_s_at) / RFU GSTM3 (11746129_a_at) / Fold change /veh GSTM3 (11746129_a_at) / RFU IL23R (11737362_x_at) / Fold change /veh IL23R (11737362_x_at) / RFU TMEM51 (11727254_a_at) / Fold change /veh TMEM51 (11727254_a_at) / RFU PIWIL2 (11732686_x_at) / Fold change /veh PIWIL2 (11732686_x_at) / RFU ORM1 (11744905_x_at) / Fold change /veh ORM1 (11744905_x_at) / RFU CCDC152 (11743942_at) / Fold change /veh CCDC152 (11743942_at) / RFU ECM1 (11717891_a_at) / Fold change /veh ECM1 (11717891_a_at) / RFU IL23R (11748794_a_at) / Fold change /veh IL23R (11748794_a_at) / RFU TNFAIP8L3 (11732012_x_at) / Fold change /veh TNFAIP8L3 (11732012_x_at) / RFU MBOAT4 (11741988_at) / Fold change /veh MBOAT4 (11741988_at) / RFU 11764193_at / Fold change /veh 11764193_at / RFU TMEM53 (11763286_at) / Fold change /veh TMEM53 (11763286_at) / RFU MAGEB2 (11727129_at) / Fold change /veh MAGEB2 (11727129_at) / RFU TMEM200A (11744735_a_at) / Fold change /veh TMEM200A (11744735_a_at) / RFU CCDC152 (11751479_a_at) / Fold change /veh CCDC152 (11751479_a_at) / RFU FAM211A (11726209_a_at) / Fold change /veh FAM211A (11726209_a_at) / RFU RGS16 (11746705_a_at) / Fold change /veh RGS16 (11746705_a_at) / RFU VCAN (11755009_s_at) / Fold change /veh VCAN (11755009_s_at) / RFU RHOB (11743442_s_at) / Fold change /veh RHOB (11743442_s_at) / RFU RGS16 (11720943_a_at) / Fold change /veh RGS16 (11720943_a_at) / RFU RGS16 (11720944_at) / Fold change /veh RGS16 (11720944_at) / RFU, VPS4B / Fold change vs veh, VPS4B / RFU, CREB1 / Fold change vs veh, CREB1 / RFU, DNAJC13 / Fold change vs veh, DNAJC13 / RFU, GNAQ / Fold change vs veh, GNAQ / RFU, CDK5R1 / Fold change vs veh, CDK5R1 / RFU, ZRANB3 / Fold change vs veh, ZRANB3 / RFU, CUL4A / Fold change vs veh, CUL4A / RFU, CCNY / Fold change vs veh, CCNY / RFU, UFL1 / Fold change vs veh, UFL1 / RFU, COG3 / Fold change vs veh, COG3 / RFU, DIAPH2 / Fold change vs veh, DIAPH2 / RFU, SKA2 / Fold change vs veh, SKA2 / RFU, AFF3 / Fold change vs veh, AFF3 / RFU, LMF1 / Fold change vs veh, LMF1 / RFU, IPO11 / Fold change vs veh, IPO11 / RFU, DFFB / Fold change vs veh, DFFB / RFU, FOXP1 / Fold change vs veh, FOXP1 / RFU, CARD8 / Fold change vs veh, CARD8 / RFU, STRN3 / Fold change vs veh, STRN3 / RFU, ADK / Fold change vs veh, ADK / RFU, RASSF2 / Fold change vs veh, RASSF2 / RFU, WIPF1 / Fold change vs veh, WIPF1 / RFU, LARP1B / Fold change vs veh, LARP1B / RFU, RASA1 / Fold change vs veh, RASA1 / RFU, RB1 / Fold change vs veh, RB1 / RFU, PPFIA1 / Fold change vs veh, PPFIA1 / RFU, MAT2A / Fold change vs veh, MAT2A / RFU, CCT5 / Fold change vs veh, CCT5 / RFU, WDR92 / Fold change vs veh, WDR92 / RFU, CUX1 / Fold change vs veh, CUX1 / RFU, TTC7A / Fold change vs veh, TTC7A / RFU, TMEM135 / Fold change vs veh, TMEM135 / RFU, DEPTOR / Fold change vs veh, DEPTOR / RFU, CPM / Fold change vs veh, CPM / RFU, DNAJB6 / Fold change vs veh, DNAJB6 / RFU, CACNA2D3 / Fold change vs veh, CACNA2D3 / RFU, DTX4 / Fold change vs veh, DTX4 / RFU, TFCP2 / Fold change vs veh, TFCP2 / RFU, GMCL1 /// GMCL1P1 / Fold change vs veh, GMCL1 /// GMCL1P1 / RFU, AEBP2 / Fold change vs veh, AEBP2 / RFU, SNHG1 /// SNORD22 /// SNORD25 /// SNORD26 /// SNORD27 /// SNORD28 /// SNORD29 /// SNORD31 / Fold change vs veh, SNHG1 /// SNORD22 /// SNORD25 /// SNORD26 /// SNORD27 /// SNORD28 /// SNORD29 /// SNORD31 / Fold change (Aza/veh), C12orf56 (ProbeSet 11735607_a_at) / Fold change (ACY-1035/veh), C12orf56 (ProbeSet 11735607_a_at) / Fold change (Aza/veh), FGFR1OP (ProbeSet 11751329_s_at) / Fold change (ACY-1035/veh), FGFR1OP (ProbeSet 11751329_s_at) / Fold change (Aza/veh), VPS36 (ProbeSet 11739960_a_at) / Fold change (ACY-1035/veh), VPS36 (ProbeSet 11739960_a_at) / RFU SYPL1 (11715823_x_at) / Fold change /veh SYPL1 (11715823_x_at) / RFU IGFBP7 (11715501_s_at) / Fold change /veh IGFBP7 (11715501_s_at) / RFU REEP3 (11722064_at) / Fold change /veh REEP3 (11722064_at) / RFU IGLL1 (11728026_x_at) / Fold change /veh IGLL1 (11728026_x_at): dose or concentration left out as unconfirmed. Format: cell-based, human. The following applies: MV-4-11 cells, 48 hours.

As for `Nc1ccc(-c2cccs2)cc1NC(=O)c1ccc2c(c1)cc(C1CC1)n2CCN1CCOCC1` [ACY-1035], the “RFU ABCC12 (11746883_a_at)” value came to 8.23 RFU.

(Values after publication PMC5218480 (PLoS ONE, 2017).)
